{"source": "the supplement of paper PMC11208160", "data": [{"assay": "recombinant UMI read abundance after kanamycin selection (control-corrected) (log10(CPM+1)); higher = more efficient recombination; extreme values may be limits of the assay; sequences stand for … in AGTGCAGAGAAAATCGGCCAGTTTTCTCTGCCTGCAGTCCGCATGCCGTGGGACCCCTTGGGTTCTAACCTGTTGCCTAGATTTATGCAGCGGACTGCCTTTCTCCCAAAGTGATAAACCGG…AGGTTGGTTTCACT; site = the 11-nt donor", "outline": "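Reported values are log10(CPM+1) from a pooled Escherichia coli screen of donor and donor-binding-loop pairs for the IS621 bridge recombinase. Selection used IPTG (0.07 mM) plus kanamycin, against unselected plating, each in two replicates. Recombinant UMIs were amplified across the donor–target junction, sequenced, converted to CPM, averaged over replicates and scaled by control-derived factors.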", "values": [{"sequence": "AGCAAGGCATGGACCGGTTTTCCCGGTAATCCGTATTTGCA (site AGGAAGACTTG)", "recombinant UMI read abundance (log10)": 0.0151}, {"sequence": "AGCACAGCATGGACCGGTTTTCCCGGTAATCCGTATTTGAC (site AGCACAGCTGT)", "recombinant UMI read abundance (log10)": 2.8}, {"sequence": "AGCACAGCATGGACCGGTTTTCCCGGTAATCCGTATTTGGG (site AGCACAGCTCC)", "recombinant UMI read abundance (log10)": 0.0126}, {"sequence": "AGCACAGCATGGACCGGTTTTCCCGGTAATCCGTATTTGGG (site AGCCCAGCTCC)", "recombinant UMI read abundance (log10)": 0.00716}, {"sequence": "AGCACAGCATGGACCGGTTTTCCCGGTAATCCGTATTTGGG (site AGCGCAGCTCC)", "recombinant UMI read abundance (log10)": 0.0219}, {"sequence": "AGCACAGCATGGACCGGTTTTCCCGGTAATCCGTATTTGGG (site AGCTCAGCTCC)", "recombinant UMI read abundance (log10)": 0}, {"sequence": "AGCACCGCATGGACCGGTTTTCCCGGTAATCCGTATTTGGG (site AGCACCGCTCC)", "recombinant UMI read abundance (log10)": 0.0364}, {"sequence": "AGCACGACATGGACCGGTTTTCCCGGTAATCCGTATTTGCA (site AGCACGACTTG)", "recombinant UMI read abundance (log10)": 2.02}, {"sequence": "AGCACGACATGGACCGGTTTTCCCGGTAATCCGTATTTGCA (site AGGAAGACTTG)", "recombinant UMI read abundance (log10)": 0}, {"sequence": "AGCCAAACATGGACCGGTTTTCCCGGTAATCCGTATTTGAA (site AGCCAAACTTT)", "recombinant UMI read abundance (log10)": 1.32}, {"sequence": "AGCCCCTCATGGACCGGTTTTCCCGGTAATCCGTATTTGCA (site AGCCCCTCTTG)", "recombinant UMI read abundance (log10)": 2.75}, {"sequence": "AGCCCTCCATGGACCGGTTTTCCCGGTAATCCGTATTTGTT (site AGCCCTCCTAA)", "recombinant UMI read abundance (log10)": 0.00736}, {"sequence": "AGCCGAGCATGGACCGGTTTTCCCGGTAATCCGTATTTGTT (site AGCCAAGCTAA)", "recombinant UMI read abundance (log10)": 0.398}, {"sequence": "AGCCGAGCATGGACCGGTTTTCCCGGTAATCCGTATTTGTT (site AGCCCAGCTAA)", "recombinant UMI read abundance (log10)": 0.0229}, {"sequence": "AGCCGAGCATGGACCGGTTTTCCCGGTAATCCGTATTTGTT (site AGCCGAGCTAA)", "recombinant UMI read abundance (log10)": 0.837}, {"sequence": "AGCCGAGCATGGACCGGTTTTCCCGGTAATCCGTATTTGTT (site AGCCTAGCTAA)", "recombinant UMI read abundance (log10)": 0.00511}, {"sequence": "AGCCGTTCATGGACCGGTTTTCCCGGTAATCCGTATTTGAC (site AGCCATTCTGT)", "recombinant UMI read abundance (log10)": 0}, {"sequence": "AGCCGTTCATGGACCGGTTTTCCCGGTAATCCGTATTTGAC (site AGCCCTTCTGT)", "recombinant UMI read abundance (log10)": 0}, {"sequence": "AGCCGTTCATGGACCGGTTTTCCCGGTAATCCGTATTTGAC (site AGCCGTTCTGT)", "recombinant UMI read abundance (log10)": 1.9}, {"sequence": "AGCCGTTCATGGACCGGTTTTCCCGGTAATCCGTATTTGAC (site AGCCTTTCTGT)", "recombinant UMI read abundance (log10)": 0}, {"sequence": "AGCCTAGCATGGACCGGTTTTCCCGGTAATCCGTATTTGCT (site AGCCTAGCTAA)", "recombinant UMI read abundance (log10)": 0.0111}, {"sequence": "AGCCTAGCATGGACCGGTTTTCCCGGTAATCCGTATTTGCT (site AGCCTAGCTAC)", "recombinant UMI read abundance (log10)": 0.0198}, {"sequence": "AGCCTAGCATGGACCGGTTTTCCCGGTAATCCGTATTTGCT (site AGCCTAGCTAG)", "recombinant UMI read abundance (log10)": 0.00934}, {"sequence": "AGCCTAGCATGGACCGGTTTTCCCGGTAATCCGTATTTGCT (site AGCCTAGCTAT)", "recombinant UMI read abundance (log10)": 0}, {"sequence": "AGCCTAGCATGGACCGGTTTTCCCGGTAATCCGTATTTGTG (site AGCCTAGCTAA)", "recombinant UMI read abundance (log10)": 0.0164}, {"sequence": "AGCCTAGCATGGACCGGTTTTCCCGGTAATCCGTATTTGTG (site AGCCTAGCTCA)", "recombinant UMI read abundance (log10)": 0.0603}, {"sequence": "AGCCTAGCATGGACCGGTTTTCCCGGTAATCCGTATTTGTG (site AGCCTAGCTGA)", "recombinant UMI read abundance (log10)": 0}, {"sequence": "AGCCTAGCATGGACCGGTTTTCCCGGTAATCCGTATTTGTG (site AGCCTAGCTTA)", "recombinant UMI read abundance (log10)": 0.00858}, {"sequence": "AGCCTATCATGGACCGGTTTTCCCGGTAATCCGTATTTGTT (site AGCCTAACTAA)", "recombinant UMI read abundance (log10)": 0.0449}, {"sequence": "AGCCTATCATGGACCGGTTTTCCCGGTAATCCGTATTTGTT (site AGCCTACCTAA)", "recombinant UMI read abundance (log10)": 0.00813}, {"sequence": "AGCCTATCATGGACCGGTTTTCCCGGTAATCCGTATTTGTT (site AGCCTAGCTAA)", "recombinant UMI read abundance (log10)": 0.0191}, {"sequence": "AGCCTATCATGGACCGGTTTTCCCGGTAATCCGTATTTGTT (site AGCCTATCTAA)", "recombinant UMI read abundance (log10)": 0}, {"sequence": "AGCCTCGCATGGACCGGTTTTCCCGGTAATCCGTATTTGTA (site AGCCTCGCTTA)", "recombinant UMI read abundance (log10)": 0.57}, {"sequence": "AGCCTCGCATGGACCGGTTTTCCCGGTAATCCGTATTTGTT (site AGCCTAGCTAA)", "recombinant UMI read abundance (log10)": 0.0107}, {"sequence": "AGCCTCGCATGGACCGGTTTTCCCGGTAATCCGTATTTGTT (site AGCCTCGCTAA)", "recombinant UMI read abundance (log10)": 0.0635}, {"sequence": "AGCCTCGCATGGACCGGTTTTCCCGGTAATCCGTATTTGTT (site AGCCTGGCTAA)", "recombinant UMI read abundance (log10)": 0.00929}, {"sequence": "AGCCTCGCATGGACCGGTTTTCCCGGTAATCCGTATTTGTT (site AGCCTTGCTAA)", "recombinant UMI read abundance (log10)": 0.0107}]}]}
